Laboratory results taken from patent US12358893B2, “Metalloenzyme inhibitor compounds” (Corxel Pharmaceuticals Hong Kong Limited, priority 2019, dated 2025).

What was measured:
[1] = target: T1, recombinant human CYP11B1 (Homo sapiens, UniProt P15538); assay: CYP11B1 enzyme assay with enzyme enriched microsomes, cortisol measured by LC-MS; assay type: biochemical; conditions: microsomes from V79-4 cells; 11-deoxycortisol at Km; read-out: hCYP11B1 IC50
T1 construct: made in house; host or cells: V79-4 cells (Chinese hamster lung fibroblasts); enzyme-enriched microsomal fraction of the lysate
T1 sequence (P15538 25-503): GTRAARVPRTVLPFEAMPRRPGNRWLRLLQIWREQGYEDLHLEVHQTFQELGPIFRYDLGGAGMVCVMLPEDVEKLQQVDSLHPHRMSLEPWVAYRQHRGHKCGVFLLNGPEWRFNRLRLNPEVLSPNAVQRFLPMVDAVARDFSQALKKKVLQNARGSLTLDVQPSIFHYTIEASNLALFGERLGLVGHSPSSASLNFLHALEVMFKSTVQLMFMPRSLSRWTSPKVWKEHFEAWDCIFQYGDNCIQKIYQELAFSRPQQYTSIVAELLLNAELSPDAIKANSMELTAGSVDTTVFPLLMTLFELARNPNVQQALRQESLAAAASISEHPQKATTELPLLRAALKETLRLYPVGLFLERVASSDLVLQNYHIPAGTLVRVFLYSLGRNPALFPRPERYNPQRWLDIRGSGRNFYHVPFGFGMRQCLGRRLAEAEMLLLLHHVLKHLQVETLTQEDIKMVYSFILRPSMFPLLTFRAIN
Experimental: (§1) V79-4 cells expressing recombinant andrenodoxin and andrenodoxin reductase with either recombinant human CYP11B2 or CYP11B1 were prepared according to methods previously described (LaSala et al 2009 Anal Bioch 394:56-61). An enzyme enriched microsomal fraction was prepared from cellular lysates and subsequently used as the enzyme source for determining inhibitor IC50s. The substrate Km values were experimentally determined for 11-deoxycorticosterone (CYP11B2 substrate) and 11-deoxycortisol (CYP11B1 substrate). Enzyme assays for inhibitor screening employed CYP11B2 and CYP11B1 enzyme enriched microsomes and were run at the Km of the respective substrates. Products of the enzyme reactions, aldosterone for CYP11B2 or cortisol for CYP11B1, were measured by LC-MS. Assays were run under conditions of less than 20% substrate turnover. Inhibitor IC50s were generated by determining the product formation in the absence or presence of inhibitor at various concentrations. In the absence of the test compound, the product formed (Pt) in each data set was defined as 100% activity. In the absence of enzyme, the product formed (Pb) in each data set was defined as 0% activity. The percent activity in the presence of each inhibitor was calculated according to the following equation: % activity=(P−Pb)/(Pt−Pb), where P=the product formed in the presence of the inhibitor. The IC50 value was defined as the inhibitor concentration causing a 50% decrease in activity relative to the no inhibitor control reaction.

[2] = target: T2, recombinant human CYP11B2 (Homo sapiens, UniProt P19099); assay: CYP11B2 enzyme assay with enzyme enriched microsomes, aldosterone measured by LC-MS; assay type: biochemical; conditions: microsomes from V79-4 cells; 11-deoxycorticosterone at Km; read-out: hCYP11B2 IC50
T2 construct: made in house; host or cells: V79-4 cells (Chinese hamster lung fibroblasts); enzyme-enriched microsomal fraction of the lysate
T2 sequence (P19099 25-503): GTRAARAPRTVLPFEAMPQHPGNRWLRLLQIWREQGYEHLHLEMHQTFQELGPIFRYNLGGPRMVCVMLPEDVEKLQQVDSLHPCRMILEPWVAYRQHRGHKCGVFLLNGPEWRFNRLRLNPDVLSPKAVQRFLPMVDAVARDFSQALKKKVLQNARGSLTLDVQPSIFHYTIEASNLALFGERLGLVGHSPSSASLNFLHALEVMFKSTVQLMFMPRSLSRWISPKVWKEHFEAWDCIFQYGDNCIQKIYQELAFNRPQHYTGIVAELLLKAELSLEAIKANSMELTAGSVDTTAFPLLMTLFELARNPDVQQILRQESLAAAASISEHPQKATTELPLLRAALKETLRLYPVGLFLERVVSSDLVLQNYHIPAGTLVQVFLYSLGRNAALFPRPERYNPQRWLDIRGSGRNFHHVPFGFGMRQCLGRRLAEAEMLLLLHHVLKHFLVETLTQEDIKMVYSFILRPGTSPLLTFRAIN
Experimental: as §1

Compound	IC50 [1] [nM]	IC50 [2] [nM]
Fc1ccc2nc(-n3cnc4ccccc43)n(C3CC3)c2c1F [Example 2, 1′-cyclopropyl-6′,7′-difluoro-1′H-1,2′-bibenzo[d]imidazole]	1000 to 10000	1 to 100
Fc1ccc2nc(-n3cnc4cc(OC(F)(F)F)ccc43)n(C3CC3)c2c1 [Example 27, 1′-cyclopropyl-6′-fluoro-5-(trifluoromethoxy)-1′H-1,2′-bibenzo[d]imidazole]	100 to 1000	1 to 100
Cc1ccc2ncn(-c3nc4ccc(F)cc4n3C3CC3)c2c1 [Example 9, 1′-cyclopropyl-6′-fluoro-6-methyl-1′H-1,2′-bibenzo[d]imidazole]	100 to 1000	1 to 100
Fc1cc2ncn(-c3nc4ccc(Cl)cc4n3C3CC3)c2cc1F [Example 26, 6′-chloro-1′-cyclopropyl-5,6-difluoro-1′H-1,2′-bibenzo[d]imidazole]	1000 to 10000	1 to 100
CCc1ccc2ncn(-c3nc4ccc(F)cc4n3C3CC3)c2c1 [Example 11, 1′-cyclopropyl-6-ethyl-6′-fluoro-1′H-1,2′-bibenzo[d]imidazole]	1000 to 10000	1 to 100
Fc1ccc2nc(-n3cnc4c(F)c(F)ccc43)n(C3CC3)c2c1 [Example 3, 1′-cyclopropyl-4,5,6′-trifluoro-1′H-1,2′-bibenzo[d]imidazole]	> 10000	1000 to 10000
N#Cc1ccc2ncn(-c3nc4cc(F)c(F)cc4n3C3CC3)c2c1 [Example 24, 1′-cyclopropyl-5′,6′-difluoro-1′H-[1,2′-bibenzo[d]imidazole]-6-carbonitrile]	> 10000	100 to 1000
Fc1ccc2nc(-n3cnc4cc(F)c(F)cc43)n(C3CC3)c2c1 [Example 4, 1′-cyclopropyl-5,6,6′-trifluoro-1′H-1,2′-bibenzo[d]imidazole]	1000 to 10000	1 to 100
N#Cc1ccc2nc(-n3cnc4cc(F)c(F)cc43)n(C3CC3)c2n1 [Example 32, 3-cyclopropyl-2-(5,6-difluoro-1H-benzo[d]imidazol-1-yl)-3H-imidaz[4,5-b]pyridine-5-carbonitrile]	1000 to 10000	1 to 100
CS(=O)(=O)Nc1ccc2ncn(-c3nc4ccc(F)c(F)c4n3C3CC3)c2c1 [Example 33, N-(1′-cyclopropyl-6′,7′-difluoro-1′H-[1,2′-bibenzo[d]imidazol]-6-yl) methanesulfonamide]	> 10000	1000 to 10000
CCn1c(-n2cnc3cc(F)c(F)cc32)nc2ccc(C#N)cc21 [Example 22, 1′-ethyl-5,6-difluoro-1′H-[1,2′-bibenzo[d]imidazole]-6′-carbonitrile]	1000 to 10000	1 to 100

Other lines, results leading:

IC50 [1] [nM]	IC50 [2] [nM]	Compound
> 10000	1 to 100	Fc1cc2nc(-n3cnc4cnc(C(F)F)cc43)n(C3CC3)c2cc1F [Example 40, 1-(1-cyclopropyl-5,6-difluoro-1H-benzo[d]imidazol-2-yl)-6-(difluoromethyl)-1H-imidazo[4,5-c]pyridine]
> 10000	1000 to 10000	CS(=O)(=O)Nc1ccc2ncn(-c3nc4cc(F)c(F)cc4n3C3CC3)c2c1 [Example 45, N-(1′-cyclopropyl-5′,6′-difluoro-1′H-[1,2′-bibenzo[d]imidazol]-6-yl) methanesulfonamide]
> 10000	100 to 1000	CS(=O)(=O)Nc1ccc2c(c1)ncn2-c1nc2ccc(C#N)cc2n1C1CC1 [Example 47, N-(6′-cyano-1′-cyclopropyl-1′H-[1,2′-bibenzo[d]imidazol]-5-yl) methanesulfonamide]
> 10000	1000 to 10000	CS(=O)(=O)Nc1ccc2ncn(-c3nc4ccc(C#N)cc4n3C3CC3)c2c1 [Example 48, N-(6′-cyano-1′-cyclopropyl-1′H-[1,2′-bibenzo[d]imidazol]-6-yl) methanesulfonamide]
1000 to 10000	1 to 100	Fc1cc2nc(-n3cnc4cnccc43)n(C3CC3)c2cc1F [Example 35, 1-(1-cyclopropyl-5,6-difluoro-1H-benzo[d]imidazol-2-yl)-1H-imidazo[4,5-c]pyridine]
